Laboratory results from patent US20250382588A1, “CHIMERIC AAV AND USES THEREOF” (priority 2023, published 2025).
Entries after “also recorded” stand apart in the source; their conditions may differ.

How the values were obtained:
[1] = CSF concentration of DCZ by LC-MS; format: in vivo, macaques; settings: 24 hours after drug infusion, 0.3 mg/kg i.m.
Source text: One month of washout was allowed before administration of DCZ.

rM3Ds = target: T1, rM3Ds (Rattus norvegicus, UniProt P08483, A177S/A238G/A489L/DEL261-437/DEL441-478/E258S/I253V/I483M/INS256[…]/K178L/K182A/K255R/K484R/K486H/L173F/L482A/M480V/R171S/R176Q/R179M/S481M/T174R/T181R/T257A/Y148C); test: Electrophysiological recording in caudate/putamen of MPP+ lesioned macaques after CNO or DCZ; format: in vivo
T1 sequence (P08483 with tags, fused parts or gaps Y148C/R171S/L173F/T174R/R176Q/A177S/K178L/R179M/T181R/K182A/A238G/I253V/K255R/INS256[…]/T257A/E258S/DEL261-437/DEL441-478/M480V/S481M/L482A/I483M/K484R/K486H/A489L): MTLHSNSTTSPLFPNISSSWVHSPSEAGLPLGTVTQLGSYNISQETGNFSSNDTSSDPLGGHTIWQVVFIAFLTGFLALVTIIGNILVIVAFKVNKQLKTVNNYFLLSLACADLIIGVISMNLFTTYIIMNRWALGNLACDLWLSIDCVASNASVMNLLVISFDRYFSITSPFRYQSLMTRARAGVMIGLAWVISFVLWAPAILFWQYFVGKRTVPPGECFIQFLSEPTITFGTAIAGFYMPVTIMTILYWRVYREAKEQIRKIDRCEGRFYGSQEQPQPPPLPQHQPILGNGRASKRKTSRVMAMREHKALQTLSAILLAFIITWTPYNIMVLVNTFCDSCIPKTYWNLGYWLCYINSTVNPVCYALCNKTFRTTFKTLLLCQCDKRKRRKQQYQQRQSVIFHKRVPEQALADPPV
Procedure: Intriguingly, many of the symptoms were greatly reversed after systemic deschloroclozapine (DCZ) administration. DCZ is a potent brain-penetrable agonist for rM3Ds with reduced off-targeting binding compared to CNO, and was administered to activate the DREADD system in the macaque brain.
Electrophysiological recording was performed through a recording chamber while the monkey was anesthetized. Neural responses were recorded by a 16-channel linear probe (Plexon Inc, Uprobe) driven by a mechanical microdrive (Alpha Omega, FlexMT). Signals were passed through a head stage (Plexon Inc, HST/16V-G20 LN) and then split and filtered between 300 Hz and 5 kHz to identify spiking activity with an amplifier system (Plexon Inc, OmniPlex). Detected spikes were then sorted by commercially available software (Plexon Inc, Offline Sorter) for further analysis. To quantify the effect of CNO/DCZ injection, neural activity was recorded for 60 minutes following CNO/DCZ injection. The response time-course for each channel was obtained by counting the spikes within every 10-minute window and then normalizing to the maximal.
To determine the effect of CNO/DCZ injection on the direction of signal change, we performed Pearson correlation between neural responses and time using the ‘corr’ function in Matlab, which generates the correlation coefficient ‘r’ and significant level ‘p’. A neuron was considered to have “Increased” activity when r>0 and p<[…]; and considered to have “Decreased” activity when r<0 and p<0.05. Otherwise, neurons were considered to be “Unchanged” in their neural activities. The responses of all increased neurons were then averaged after being normalized by the maximal response (Crowe et al., 2014; Dai and Wang, 2018; Hirokawa et al., 2019) following CNO/DCZ injection, and then plotted as a function of time to generate the normalized population response.

[2] = Motor-related behaviors in naïve macaques after DCZ; format: in vivo; settings: DCZ 0.3 mg/kg
Procedure: The locomotion tests for monkeys were conducted in a custom-made observation cage (100 cm×100 cm×100 cm). The top and front of the cage were made of toughened glass in order to gain a clear view for behavioral recording. Monkeys were habituated to the observation cage by placing them inside for 30 minutes on three separate days.

[3] = test system: parkinsonian macaque model (MPP+); test: Parkinsonian symptoms in MPP+ macaques (PD score, locomotion, EMG tremor, motor skill, dyskinesia score)
Procedure: Parkinsonian conditions in macaque monkeys were established by unilaterally injecting 1-Methyl-4-phenylpyridinium (MPP+) into the SNc (FIG. 14). […] Drug injections were performed in five sites covering the whole SNc. A total volume of 10 ul MPP+ was injected into SNc at a speed of 50 nL/min. Monkeys were continuously monitored by veterinarians after lesion.
Two experienced observers blindly evaluated parkinsonian symptoms of the monkeys three days per week throughout the observation periods. Parkinsonian symptoms were quantified according to the well-established Kurlan scale (Part I. Parkinsonian features), a widely used scale to quantify PD symptoms in old world monkeys. A score of zero indicates a normal monkey, whereas a maximum score of 29 indicates an animal with severe PD symptoms. For separate behavioral categories, scoring of the upper limb and the lower limb were added together. Additionally, action or intention tremors and resting tremors were added together.
Two experienced observers blindly evaluated dyskinesia symptoms of the monkeys three days per week throughout the observation periods. Dyskinesia score criteria were: 0: Absent. 1: Mild, fleeting, present <30% of the observation period. 2: Moderate, not interfering with normal activity, present >30% of the observation period. 3: Marked, at times interfering with normal activity; present <70% of the observation period.4: Severe, continuous, replacing normal activity, present >70% of the observation.
For parkinsonian monkeys, DCZ (Deschloroclozapine, 0.3 mg/kg, MCE) was administered via intramuscular injection. After DCZ was successfully infused, monkeys were immediately transferred to the observation cage for video recording. […] For long-term DCZ treatment, parkinsonian monkeys were given DCZ at a dose of 0.3 mg/kg every other day via intramuscular injection. […] One month of washout was allowed before administration of DCZ for a 2 months treatment.
A grasp-to-eat/hand-to-mouth movement test was conducted as an indication of motor skills in monkeys. Monkeys were first trained to sit in a primate chair with the healthy hand restricted. Monkeys were then trained to grasp food (a piece of apple, ˜1 cm3) using the MPP+-affected hand from the experimenter. The task contained three blocks, with 20-minute intervals between different blocks. Each block included ten continuous trials. Trials were defined as successful when monkeys were able to bring food to their mouth within a minute.
During video recording, a top (x/y) and a side (x/z) camera were used to record the observation cage. The VigiePrimate system (Viewpoint) was used to analyze the subject's activity and extract movement data from the recorded videos. The tracking data were synchronously sampled at 25 Hz for both top view and side view, and then combined to generate one dataset representing the 3D space. The tracking data were normalized to 0-100 cm for all x-, y-, and z-axes, of which x represents right to left, y represents front to back, and z represents bottom to top.
Customized surface EMG electrodes were used for EMG recordings.

[4] = in vivo
[5] = test system: MSNs in nucleus accumbens; test: Retrograde labeling of accumbal MSNs after delivery into ventral pallidum or lateral hypothalamus; format: in vivo, mice
[6] = test system: striatal D1 MSNs (striatonigral projection neurons); test: Retrograde labeling of striatonigral projection neurons after AAV injection into the SNr; format: in vivo, mice; settings: for Mean: Table 2, AAVs with capsid and promoter, labeled cells per striatal hemisphere after nigral delivery; for retrograde labeling/infectivity of striatal projection neurons (D1 MSNs), in words: injection into the SNr; for labeled striatonigral projection neurons (FIG. 2C): mean±SEM, n=3 mice, viruses injected into the SNr; for times more EYFP positive/labeled MSNs compared to rAAV2-retro: nigral delivery, hSyn-EYFP
Procedure: To improve efficiency, multiple rounds of mutations of AAV capsids were performed on a series of different serotypes. Mutations were introduced at three sites in the AAV8 capsid protein to make AAV8R, including N385D, insertion of […] (SEQ ID NO: 31) at position 588, and TS711-712IN. Two additional mutations of V183E and N411S were incorporated into the AAV8R12 capsid protein (FIG. 1A). The labeling pattern of the AAV8R12 capsid and G88 promoter combination was determined.
First, the polypeptide fragment RGNLADODYTKTARQAATAD (SEQ ID NO.: 31) was inserted at the N587-R588 position; two other point mutations of the AAV2 Cap protein were made to develop rAAV2-retro. Similar mutations were then placed at equivalent positions for four other AAV serotypes (FIGS. 1A-IC and 25, TABLE 1), AAV1/5/6/8 (FIG. 1A). […] When administered into the SNr, 4.86±0.22 times EYFP positive MSNs in mice infected by AAV8R-hSyn-EYFP were observed as compared to those infected by rAAV2-retro-hSyn-EYFP (FIG. 2A-2C).
Baseline infectivity of rAAV2-retro was approximately 0.2±0.03×10^4 cells per striatal hemisphere (using a hSyn promoter) (TABLE 2). […] Compared to the current standard retrograde AAV, rAAV2-retro, AAV8R12 labeled 7.72±0.78-times more MSNs after nigral delivery (FIG. 2B-2C, TABLE 1). […] The AAV8R12 was generated using the AAV8R plasmid as a template.
Mice were anesthetized with sodium pentobarbital (Nembutal; 80 mg/kg, i.p.), and then placed into a stereotaxic device (KOPF). Eye cream was applied on both corneas to avoid dehydration. The skull above the targeted areas was thinned with a dental drill and carefully removed. Injections were conducted with a 10 μL syringe connected to a 33-Gauge needle (Neuros; Hamilton), using a microsyringe pump (Legato 130, KD Scientific). A total volume of 200 nL virus was injected into the SNr at a speed of 20 nL/min. The coordinates for the SNr were 3.4 mm posterior, 1.3 mm lateral, 4.8 mm ventral to the bregma.
HEK293T cells (ATCC) were co-transfected by calcium phosphate with an AAV vector plasmid, an AAV Rep-Cap plasmid (rAAV2-retro, AAV1R, AAV5R, AAV6R, AAV8R, and AAV8R1-14), and the pAdDeltaF6 helper plasmid (Addgene, 112867) harboring the adenoviral genes required for the AAV life cycle. HEK293T cells grown in 15 cm cell culture dishes were co-transfected with the mixture of three plasmids (1:1:1) at 80% confluency. 48-72 hours post-transfection, cells were collected and resuspended in a buffer containing 150 mM NaCl and 100 mM Tris-HCl (pH 8.0). Cells were lysed by repeated freeze-thaw cycles in liquid nitrogen and a 37° C. water bath. AAV particles were purified and concentrated using Millipore Amicon 100K columns (Merck Millipore, UFC910008). Encapsidated viral DNA was quantitated by qPCR (Thermo Fisher) with primers recognizing the viral WPRE and/or ITR sequences following denaturation of the AAV particles using Proteinase K. Titers were calculated as genome copies per milliliter.
Images were acquired using a confocal microscope (Carl Zeiss, LSM880) and an Axiolmager.Z1 microscope with apotome (Carl Zeiss). Brain structures were identified microscopically and in digital photos using a mouse brain atlas. To analyze the number of EYFP+ cells in the striatum, slices from rostral to caudal striatum were used. Every sixth section was analyzed, and numbers of EYFP+ cells were multiplied by six to acquire the approximate total number and mean number of cells per animal. Images were processed using ImageJ (NIH, USA), and final quantifications were independently performed manually by two blinded experimenters.

[7] = caudate/putamen, CNO 36 cells, DCZ 31 cells

With `CN1CCN(C2=Nc3ccccc3Nc3ccccc32)CC1` [DCZ, deschloroclozapine] the “DCZ level in cerebrospinal fluid” value [1] was “no detectable levels”, the “neuronal activity in MPP+ lesioned macaques, in words” value (rM3Ds; anesthetized animals) was “induced an increase in neuronal activity” and the “cells activated (FIG. 15G)” value (rM3Ds; [7]) was 41.9%. The “cells inactivated (FIG. 15G)” value (rM3Ds; [7]) was 9.7%, the “cells unchanged (FIG. 15G)” value (rM3Ds; [7]) was 48.4% and the “motor-related behaviors in naïve monkeys” value [2] was “did not alter motor-related behaviors; also recorded: doesn't alter motor-related behaviors”. For the same molecule, the “motor skills (hand to mouth movement)” value ([3]; DCZ treatment) was “significant recovery of motor skills; also recorded: partially restored”, the “spontaneous movement/motor deficits in an observation cage” value ([3]; DCZ treatment) was “increase in spontaneous movement; also recorded: successfully rescue motor deficits” and the “tremor (EMG)” value ([3]; DCZ treatment) was “great reduced or even eliminated; also recorded: removed”. The duration of effect ([3]; FIG. 18C) was “over 24 hr”, the “alleviation of parkinsonian symptoms over long-term treatment” value ([3]; continuous DCZ) was “consistent during an 8-month continuous treatment” and the “speed of reversal of symptoms” value ([3]; initial phase of drug administration) was “faster reversal of symptoms than levodopa; also recorded: faster than L-Dopa”. The “dyskinesia-like behaviors (dyskinesia score)” value ([3]; long-term treatment) was “dyskinesia-free; also recorded: did not elicit dyskinesia-like behaviors; also recorded: dyskinesia free”, the “alleviating symptoms after drug administration” value ([3]; single dose after steady-state efficacy) was “at least 24 hours” and the “blood levels of common liver- and kidney-related factors” value [4] was “remained stable”.

B1: AAV8R12: AAV8R capsid mutant V183E + N411S, SEQ ID NO: 13 (protein)
chain: MAADGYLPDWLEDNLSEGIREWWALKPGAPKPKANQQKQDDGRGLVLPGYKYLGPFNGLDKGEPVNAADAAALEHDKAYDQQLQAGDNPYLRYNHADAEFQERLQEDTSFGGNLGRAVFQAKKRVLEPLGLVEEGAKTAPGKKRPVEPSPQRSPDSSTGIGKKGQQPARKRLNFGQTGDSESEPDPQPLGEPPAAPSGVGPNTMAAGGGAPMADNNEGADGVGSSSGNWHCDSTWLGDRVITTSTRTWALPTYNNHLYKQISNGTSGGATNDNTYFGYSTPWGYFDFNRFHCHFSPRDWQRLINNNWGFRPKRLSFKLFNIQVKEVTQNEGTKTIANNLTSTIQVFTDSEYQLPYVLGSAHQGCLPPFPADVFMIPQYGYLTLNDGSQAVGRSSFYCLEYFPSQMLRTGNSFQFTYTFEDVPFHSSYAHSQSLDRLMNPLIDQYLYYLSRTQTTGGTANTQTLGFSQGGPNTMANQAKNWLPGPCYRQQRVSTTTGQNNNSNFAWTAGTKYHLNGRNSLANPGIAMATHKDDEERFFPSNGILIFGKQNAARDNADYSDVMLTSEEEIKTTNPVATEEYGIVADNLQRGNLADQDYTKTARQAATADVNSQGALPGMVWQNRDVYLQGPIWAKIPHTDGNFHPSPLMGGFGLKHPPPQILIKNTPVPADPPTTFNQSKLNSFITQYSTGQVSVEIEWELQKENSKRWNPEIQYTSNYYKSINVDFAVNTEGVYSEPRPIGTRYLTRN
With B1 the “labeling of MSNs in nucleus accumbens” value [5] was “robust labeling”, the “Labeling Efficiency in Striatonigral Pathway” value ([6]; AAV8R capsid mutants, numbers of labeled neurons per animal) was “+++ (10 k-25 k)” and the Mean [6] was 16026. For the same molecule, the “retrograde labeling/infectivity of striatal projection neurons (D1 MSNs), in words” value [6] was “mostly improved efficiency”, the “labeled striatonigral projection neurons (FIG. 2C)” value [6] was 16026±1654 and the “times more EYFP positive/labeled MSNs compared to rAAV2-retro” value [6] was 7.72±0.78 times.

B2: AAV8R: AAV8 capsid with N385D, insertion of SEQ ID NO: 31 at position 588 and TS to IN mutation; SEQ ID NO: 1 (protein)
chain: MAADGYLPDWLEDNLSEGIREWWALKPGAPKPKANQQKQDDGRGLVLPGYKYLGPFNGLDKGEPVNAADAAALEHDKAYDQQLQAGDNPYLRYNHADAEFQERLQEDTSFGGNLGRAVFQAKKRVLEPLGLVEEGAKTAPGKKRPVEPSPQRSPDSSTGIGKKGQQPARKRLNFGQTGDSESVPDPQPLGEPPAAPSGVGPNTMAAGGGAPMADNNEGADGVGSSSGNWHCDSTWLGDRVITTSTRTWALPTYNNHLYKQISNGTSGGATNDNTYFGYSTPWGYFDFNRFHCHFSPRDWQRLINNNWGFRPKRLSFKLFNIQVKEVTQNEGTKTIANNLTSTIQVFTDSEYQLPYVLGSAHQGCLPPFPADVFMIPQYGYLTLNDGSQAVGRSSFYCLEYFPSQMLRTGNNFQFTYTFEDVPFHSSYAHSQSLDRLMNPLIDQYLYYLSRTQTTGGTANTQTLGFSQGGPNTMANQAKNWLPGPCYRQQRVSTTTGQNNNSNFAWTAGTKYHLNGRNSLANPGIAMATHKDDEERFFPSNGILIFGKQNAARDNADYSDVMLTSEEEIKTTNPVATEEYGIVADNLQRGNLADQDYTKTARQAATADVNSQGALPGMVWQNRDVYLQGPIWAKIPHTDGNFHPSPLMGGFGLKHPPPQILIKNTPVPADPPTTFNQSKLNSFITQYSTGQVSVEIEWELQKENSKRWNPEIQYTSNYYKSINVDFAVNTEGVYSEPRPIGTRYLTRNL
In the case of B2, the “labeling of MSNs in nucleus accumbens” value [5] is reported as “robust labeling”, the Mean [6] is reported as 10092 and the “retrograde labeling/infectivity of striatal projection neurons (D1 MSNs), in words” value [6] is reported as “acquired improved retrograde infectivity”. For the same molecule, the “labeled striatonigral projection neurons (FIG. 2C)” value [6] was 10092±463.9 and the “times more EYFP positive/labeled MSNs compared to rAAV2-retro” value [6] was 4.86±0.22 times.
